Assay results as given in PubChem BioAssay (NCI).
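Five concentrations, 48 hours, 96-well plates. At the TGI there is no net growth.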

Legend:
Experiment in all cases: NCI anticancer screen, dose series, 48 h
[1] = system: UACC-62 melanoma
[2] = system: NCI-H226 lung
[3] = system: K-562 leukemia
[4] = system: RPMI-8226 leukemia
[5] = system: T-47D breast
[6] = system: MDA-N
[7] = system: OVCAR-4 ovarian
[8] = system: HCT-116 colon
[9] = system: SF-539 CNS
[10] = system: A549 NSCLC
[11] = system: PC-3 prostate
[12] = system: SNB-75 CNS
[13] = system: DU-145 prostate
[14] = system: SK-MEL-28 melanoma
[15] = system: SK-OV-3 ovarian
[16] = system: OVCAR-5 ovarian
[17] = system: NCI/ADR-RES ovarian
[18] = system: MDA-MB-231 breast
[19] = system: 786-0 renal
[20] = system: SK-MEL-2 melanoma
[21] = system: SF-295 CNS
[22] = system: NCI-H460 lung
[23] = system: UO-31 renal
[24] = system: SR leukemia
[25] = system: M14 melanoma
[26] = system: SNB-19 CNS
[27] = system: SK-MEL-5 melanoma
[28] = system: MCF7 breast
[29] = system: UACC-257 melanoma
[30] = system: NCI-H23 lung
[31] = system: HOP-92 NSCLC
[32] = system: KM12 colon
[33] = system: SW-620 colon
[34] = system: HT29 colon
[35] = system: MDA-MB-435
[36] = system: HL-60(TB) leukemia
[37] = system: HCT-15 colon
[38] = system: CCRF-CEM leukemia
[39] = system: U251 CNS
[40] = system: EKVX NSCLC
[41] = system: OVCAR-8 ovarian
[42] = system: OVCAR-3 ovarian
[43] = system: NCI-H522 lung
[44] = system: ACHN renal
[45] = system: TK-10 renal
[46] = system: MOLT-4 leukemia
[47] = system: MALME-3M melanoma
[48] = system: IGROV1 ovarian
[49] = system: HS 578T breast
[50] = system: BT-549 breast
[51] = system: SN12C renal
[52] = system: RXF 393 renal
[53] = system: COLO 205 colon
[54] = system: HCC-2998 colon
[55] = system: CAKI-1 renal
[56] = system: SF-268 CNS
[57] = system: LOX IMVI melanoma
[58] = system: HOP-62 NSCLC

Measured: TGI

Cc1ccc(S(=O)(=O)c2c(O)c3ccc(O)c(C)c3oc2=O)cc1
not listed: [57] | [58]
> 100 µM: all other assays above

CC1CCc2sc3nc4n(c(=O)c3c2C1)CC(C)S4 (stereo not given)
70.4 µM: [40]
70.5 µM: [10]
39.8 µM: [57]
33.4 µM: [34]
98.7 µM: [45]
62.4 µM: [12]
39.3 µM: [53]
62.2 µM: [44]
53.7 µM: [51]
92.7 µM: [16]
63.8 µM: [2]
67.7 µM: [8]
64.9 µM: [31]
41.1 µM: [20]
88.6 µM: [26]
96.3 µM: [15]
50.9 µM: [29]
38.7 µM: [1]
92.8 µM: [6]
52.3 µM: [18]
52.5 µM: [28]
7.51 µM: [23]
83.1 µM: [14]
65.6 µM: [19]
42 µM: [54]
62.9 µM: [11]
65.2 µM: [22]
65.8 µM: [47]
51.8 µM: [25]
34.4 µM: [27]
52.6 µM: [21]
55.2 µM: [52]
36.7 µM: [42]
not listed: [9] | [36] | [38] | [46]
> 100 µM: all other assays above
